The target of this test is CB1 receptor (Homo sapiens, UniProt P21554). Put plainly: CB1 cAMP Antagonist Assay (LANCE Ultra cAMP kit). The class given is cell-based. The settings on record: Flp-In CHO cells stably expressing the CB1 receptor; forskolin and CP55940 agonist at EC90; cAMP FRET readout. Background: In TR-FRET formats the signal depends on donor and acceptor labels being close together.
Chain of CB1 receptor (P21554 whole entry): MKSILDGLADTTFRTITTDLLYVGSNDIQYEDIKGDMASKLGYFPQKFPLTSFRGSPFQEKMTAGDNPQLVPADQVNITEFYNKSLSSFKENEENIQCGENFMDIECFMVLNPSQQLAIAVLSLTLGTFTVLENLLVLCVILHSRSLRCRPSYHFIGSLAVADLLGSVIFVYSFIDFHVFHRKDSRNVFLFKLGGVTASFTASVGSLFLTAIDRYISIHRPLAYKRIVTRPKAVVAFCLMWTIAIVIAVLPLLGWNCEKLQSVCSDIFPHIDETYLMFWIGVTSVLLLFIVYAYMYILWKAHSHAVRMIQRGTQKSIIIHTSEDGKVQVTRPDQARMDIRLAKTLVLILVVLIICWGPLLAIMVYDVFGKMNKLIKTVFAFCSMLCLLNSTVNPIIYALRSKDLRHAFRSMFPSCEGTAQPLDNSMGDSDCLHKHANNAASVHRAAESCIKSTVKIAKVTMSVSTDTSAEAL

Usually IC50 stands for the concentration that inhibits the measured activity by half. A high value points to weaker potency. The molecule `O=c1[nH]nc(N2C[C@H](c3ccccc3)C(c3ccc(Cl)cc3)=N2)[nH]1` [Compound 211, 5-[(4S)-3-(4-chlorophenyl)-4-phenyl-4,5-dihydropyrazol-1-yl]-2,4-dihydro-1,2,4-triazol-3-one] had an IC50 of more than 5 µM. The molecule `Cn1c(N2C[C@@H](c3ccccc3)C(c3ccc(Cl)cc3)=N2)nn(CCc2ccc(C(N)=O)cc2)c1=O` [Compound 212] returned an IC50 of more than 5 µM. In the case of `C[C@H](C(N)=O)n1c(N2C[C@@H](c3ccccc3)C(c3ccc(Cl)cc3)=N2)nn(Cc2ccc(Cl)cn2)c1=O` [Compound 213] it was more than 5 µM.

(Values after patent US20230192657A1, “1,2,4-TRIAZOLINONE CB1 INHIBITORS” (Goldfinch Bio, Inc., priority 2020, published 2023).)
